What is called MIC is the smallest concentration in the dilution series that meets the test's criterion for growth inhibition. A higher MIC goes with a need for much substance.

For four molecules, MIC results are on record in DBAASP.

Some test systems named below: Bacillus cereus; Candida glabrata 08A802; Escherichia coli; Klebsiella pneumoniae; Nocardia asteroides; Shigella sp.; Bacillus subtilis; Botrytis cinerea; Fusarium verticillioides; Proteus vulgaris; Pseudomonas aeruginosa; Saccharomyces cerevisiae; Salmonella typhimurium; Staphylococcus aureus; Trichosporon beigelii.
What all share (assay): ≥ marks a high value that may be exact or a test limit, other limits are often not marked, values filed in µg/mL are converted to µM
Experiment [1] deals with Candida albicans 08022710.
Experiment [2] relates to Candida albicans 08022821.
For experiment [3], the system named is Candida albicans 08030102.
Experiment [4] deals with Candida albicans 08030401.
The subject of experiment [5] is Candida albicans 08030809.
Experiment [6] deals with Candida glabrata 09050201.
In experiment [7] the test system is Enterococcus faecium 1299.
For experiment [8], the system named is Escherichia coli ATCC 25922.
In experiment [9] the test system is Salmonella enterica subsp. enterica serovar Paratyphi A.
The subject of experiment [10] is Staphylococcus aureus 08032706.
Experiment [11] relates to Staphylococcus epidermidis.
Experiment [12] has as its system Stenotrophomonas maltophilia.
Experiment [13] concerns Staphylococcus aureus ATCC 25923.
Experiment [14] concerns Xanthomonas axonopodis pv. glycines.
For experiment [15], the system named is Aspergillus flavus KCTC 9471.
For experiment [16], the system named is Aspergillus fumigatus KCTC 6145.
The test system of experiment [17] is Candida albicans KCTC 7270.
Experiment [18] has as its system Escherichia coli O157:H7 ATCC 43895.
The subject of experiment [19] is Listeria monocytogenes KCTC 3710.
In experiment [20] the test system is Bacillus subtilis subsp. spizizenii.
In experiment [21] the test system is Enterococcus faecalis ATCC 29212.
Experiment [22] concerns Klebsiella pneumoniae ATCC 700603.
The subject of experiment [23] is Pseudomonas aeruginosa PAO1.
Experiment [24] has as its system Staphylococcus aureus ATCC 29213.
The subject of experiment [25] is Staphylococcus aureus ATCC 6538P.
Experiment [26] deals with Staphylococcus aureus WKZ-2.

In brackets after ≈: the same amount, converted by molar mass.

In the case of `CC[C@H](C)[C@H](NC(=O)[C@H](CO)NC(=O)[C@H](CO)NC(=O)CNC(=O)CNC(=O)CNC(=O)[C@H](C)NC(=O)[C@H](Cc1ccccc1)NC(=O)[C@H](Cc1ccccc1)NC(=O)[C@H](CCCCN)NC(=O)[C@H](CCCCN)NC(=O)[C@H](CC(C)C)NC(=O)[C@H](CCCN=C(N)N)NC(=O)[C@H](CCCN=C(N)N)NC(=O)[C@H](CCSC)NC(=O)[C@H](Cc1ccccc1)NC(=O)[C@H](CCCCN)NC(=O)[C@H](CCCN=C(N)N)NC(=O)[C@H](Cc1ccccc1)NC(=O)CNC(=O)[C@H](CC(N)=O)NC(=O)[C@H](CCCN=C(N)N)NC(=O)[C@@H](N)CCCCN)C(=O)N[C@@H](C)C(=O)N[C@@H](Cc1cnc[nH]1)C(=O)N[C@H](C(=O)N[C@@H](CCCCN)C(=O)N[C@@H](CC(C)C)C(=O)N[C@@H](Cc1cnc[nH]1)C(=O)O)[C@@H](C)CC` [KRNGFRKFMRRLKKFFAGGGSSIAHIKLH], the minimal inhibitory concentration (MIC) in the experiment with Bacillus cereus worked out at 2.77 µM (≈ 9.38 µg/mL); in [1], 11.1 µM (≈ 37.5 µg/mL); in [2] it was 11.1 µM (≈ 37.5 µg/mL); in experiment [3] it was 5.53 µM (≈ 18.8 µg/mL); in experiment [4], 11.1 µM (≈ 37.5 µg/mL); in experiment [5], 11.1 µM (≈ 37.5 µg/mL). The minimal inhibitory concentration (MIC) was 11.1 µM (≈ 37.5 µg/mL) against Candida glabrata 08A802; 22.1 µM (≈ 75 µg/mL) in experiment [6]; 5.53 µM (≈ 18.8 µg/mL) in experiment [7]; 11.1 µM (≈ 37.5 µg/mL) in experiment [8]; 22.1 µM (≈ 75 µg/mL) against Escherichia coli; 22.1 µM (≈ 75 µg/mL) in the experiment on Klebsiella pneumoniae. For the same molecule, the minimal inhibitory concentration (MIC) in the experiment on Nocardia asteroides was found to be 11.1 µM (≈ 37.5 µg/mL); in experiment [9], 22.1 µM (≈ 75 µg/mL); in the experiment on Shigella sp., 0.691 µM (≈ 2.34 µg/mL); in experiment [10], 22.1 µM (≈ 75 µg/mL); in experiment [11], 22.1 µM (≈ 75 µg/mL); in experiment [12], 2.77 µM (≈ 9.38 µg/mL).
In the case of `CC[C@H](C)[C@H](NC(=O)[C@@H](NC(=O)[C@H](CO)NC(=O)[C@H](Cc1c[nH]c2ccccc12)NC(=O)[C@H](CC(C)C)NC(=O)CN)[C@@H](C)O)C(=O)N[C@@H](CCCCN)C(=O)N[C@@H](CC(N)=O)C(=O)N[C@H](C(=O)N[C@@H](C)C(=O)N[C@@H](C)C(=O)N[C@@H](C)C(=O)N[C@@H](C)C(=O)NCC(=O)N[C@@H](CCCCN)C(=O)N[C@@H](C)C(=O)N[C@@H](C)C(=O)N[C@@H](CC(C)C)C(=O)NCC(=O)N[C@@H](C)C(=O)N[C@@H](CC(C)C)C(N)=O)C(C)C` [GLWSTIKNVAAAAGKAALGAL], the MIC in experiment [8] came out at 17.8 µM (≈ 35.3 µg/mL); in experiment [13], 32.3 µM (≈ 64 µg/mL); in [14], 2 µM (≈ 3.96 µg/mL).
Regarding `CC[C@H](C)[C@H](NC(=O)[C@H](CCCCN)NC(=O)[C@H](CO)NC(=O)[C@H](Cc1ccccc1)NC(=O)[C@H](CC(C)C)NC(=O)[C@H](CCCCN)NC(=O)[C@H](CCC(=O)O)NC(=O)[C@H](CC(C)C)NC(=O)[C@H](CCCN=C(N)N)NC(=O)[C@H](CCCCN)NC(=O)[C@H](CO)NC(=O)[C@@H](NC(=O)[C@H](CCCCN)NC(=O)[C@H](CCCCN)NC(=O)[C@H](C)N)C(C)C)C(=O)N[C@@H](CCC(N)=O)C(=O)N[C@@H](CC(N)=O)C(=O)N[C@@H](CC(=O)O)C(=O)N[C@@H](CCCCN)C(N)=O` [AKKVSKRLEKLFSKIQNDK], the minimal inhibitory concentration (MIC) in experiment [15] was no less than 50 µM; in experiment [16] it was no less than 50 µM; against Bacillus subtilis, 3.13 µM (≈ 7.07 µg/mL); against Botrytis cinerea it was no less than 50 µM; in experiment [17] it was 25 µM (≈ 56.5 µg/mL); in [18], 6.25 µM (≈ 14.1 µg/mL). Further, the minimum inhibitory concentration (MIC) is 6.25 µM (≈ 14.1 µg/mL) against Escherichia coli; no less than 50 µM in the experiment with Fusarium verticillioides; 12.5 µM (≈ 28.2 µg/mL) in [19]; 12.5 µM (≈ 28.2 µg/mL) with Proteus vulgaris; 12.5 µM (≈ 28.2 µg/mL) in the experiment with Pseudomonas aeruginosa; 25 µM (≈ 56.5 µg/mL) in the experiment on Saccharomyces cerevisiae. Besides, the MIC against Salmonella typhimurium was 12.5 µM (≈ 28.2 µg/mL); against Staphylococcus aureus, greater than 12.5 µM; in experiment [11], 12.5 µM (≈ 28.2 µg/mL); in the experiment with Trichosporon beigelii, 12.5 µM (≈ 28.2 µg/mL).
As for `CC[C@H](C)[C@H](N)C(=O)N[C@@H](CCCCN)C(=O)N[C@@H](Cc1ccc(O)cc1)C(=O)N[C@@H](CC(C)C)C(=O)N[C@@H](CC(C)C)C(=O)N[C@H](C(=O)N[C@@H](CCCCN)C(=O)N[C@@H](CC(C)C)C(=O)N[C@@H](CCC(N)=O)C(=O)NCC(=O)N[C@@H](C)C(=O)N[C@@H](CO)C(=O)N[C@@H](CCC(N)=O)C(=O)N[C@@H](CCCCN)C(=O)N[C@H](C(=O)N[C@H](C(=O)N[C@H](C(=O)N[C@@H](CC(C)C)C(=O)N[C@@H](CCSC)C(=O)N[C@@H](CC(C)C)C(=O)N[C@@H](CCCN=C(N)N)C(=O)N[C@@H](CCCN=C(N)N)C(=O)N[C@@H](CC(N)=O)C(=O)O)[C@@H](C)O)[C@@H](C)CC)[C@@H](C)O)C(C)C` [IKYLLVKLQGASQKTITLMLRRN], the MIC in [20] was no less than 50.6 µM; in [21] it was 25.3 µM (≈ 68 µg/mL); in [8], 12.6 µM (≈ 34 µg/mL); in [22], 50.6 µM (≈ 136 µg/mL); in experiment [23] it was 50.6 µM (≈ 136 µg/mL); in experiment [24], 3.16 µM (≈ 8.5 µg/mL). Also, the minimum inhibitory concentration (MIC) in [25] worked out at 6.32 µM (≈ 17 µg/mL); in experiment [26] it was 3.16 µM (≈ 8.5 µg/mL).
